Literature values as cited in patent US7189385B2, “Tooth whitening compositions” (Discus Dental Impressions, Inc., priority 1997, dated 2007).

Settings: listed as GRAS, 21 CFR 184.1901

In the case of CC(=O)OCC(COC(C)=O)OC(C)=O [Glyceryl triacetate], the toxicity is listed as “extremely low order of toxicity”.
